Reference: ChEMBL document CHEMBL1909046, “DrugMatrix in vitro pharmacology data”
Where a SMILES comes first, the peptide text is derived from it. Bridges are numbered along the chain shown (N, C = ends). [ ]: non-standard residue; d: D form. The star is where a group is joined. Threoninol(2S,3R) = C[C@@H](O)[C@H](CO)N*

Tests used:
[1] = target: 5-hydroxytryptamine receptor 4 (Cavia porcellus, UniProt O70528); type: cell membranes, Dunkin-Hartley, Striatum, Membrane; also: in other assays of this panel Not Active means under 50% inhibition at 10 µM
[2] = target: T1, C-X-C chemokine receptor type 2 (Homo sapiens, UniProt P25025); type: cell membranes, Membrane; conditions: cho-k1; also: in other assays of this panel Not Active means under 50% inhibition at 10 µM
T1 sequence (P25025 whole entry): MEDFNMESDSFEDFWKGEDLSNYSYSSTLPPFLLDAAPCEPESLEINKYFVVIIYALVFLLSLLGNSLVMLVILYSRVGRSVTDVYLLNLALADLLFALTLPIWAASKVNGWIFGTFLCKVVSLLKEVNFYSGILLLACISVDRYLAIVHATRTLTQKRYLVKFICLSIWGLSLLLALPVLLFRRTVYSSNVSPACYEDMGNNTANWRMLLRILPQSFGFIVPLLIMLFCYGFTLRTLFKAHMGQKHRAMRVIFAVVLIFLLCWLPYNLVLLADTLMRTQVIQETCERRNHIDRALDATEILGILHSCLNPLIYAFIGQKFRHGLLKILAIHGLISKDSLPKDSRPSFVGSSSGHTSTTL

Insulin receptor = Insulin receptor (Rattus norvegicus, UniProt P15127); type: cell membranes, Wistar, Liver, Membrane; also: in other assays of this panel Not Active means under 50% inhibition at 10 µM
[3] = DRUGMATRIX: Phorbol Ester radioligand binding (ligand: [3H] PDBu); type: cell membranes, Mus musculus, ICR, Brain, Membrane; conditions: Not Active = under 50% inhibition at 10 µM
[4] = target: Mitogen-activated protein kinase 14 (Homo sapiens, UniProt Q16539); design: species or system Escherichia coli;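 also: inhibition of p38alpha enzyme activity in a biochemical kinase assay, with myelin basic protein serving as substrate; in other assays of this panel Not Active means under 50% inhibition at 10 µM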
Adenosine receptor A2a = Adenosine receptor A2a (Homo sapiens, UniProt P29274); test: DRUGMATRIX: Adenosine A2A radioligand binding (ligand: […]); type: cell membranes, HEK293, Membrane; conditions: hek293; Not Active = under 50% inhibition at 10 µM
Cytochrome P450 2D6 = Cytochrome P450 2D6 (Homo sapiens, UniProt P10635); conditions: bti-tn-5b1-4; also: in other assays of this panel Not Active means under 50% inhibition at 10 µM
Sequence of Cytochrome P450 2D6 (P10635 whole entry): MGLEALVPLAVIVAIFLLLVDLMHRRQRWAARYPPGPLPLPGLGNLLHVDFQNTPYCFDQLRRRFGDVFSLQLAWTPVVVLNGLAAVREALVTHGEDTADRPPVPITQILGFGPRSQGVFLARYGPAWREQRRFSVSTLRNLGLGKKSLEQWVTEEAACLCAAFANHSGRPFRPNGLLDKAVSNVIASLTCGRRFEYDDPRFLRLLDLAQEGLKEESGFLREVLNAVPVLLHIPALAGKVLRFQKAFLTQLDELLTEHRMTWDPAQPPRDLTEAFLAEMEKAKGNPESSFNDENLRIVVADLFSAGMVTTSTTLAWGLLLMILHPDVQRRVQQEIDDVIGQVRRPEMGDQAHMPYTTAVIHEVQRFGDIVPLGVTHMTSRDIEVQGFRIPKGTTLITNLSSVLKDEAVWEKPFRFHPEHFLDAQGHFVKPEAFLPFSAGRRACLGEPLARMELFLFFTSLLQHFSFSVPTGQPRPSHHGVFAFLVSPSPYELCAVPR

Sequence of Adenosine receptor A2a (P29274 whole entry): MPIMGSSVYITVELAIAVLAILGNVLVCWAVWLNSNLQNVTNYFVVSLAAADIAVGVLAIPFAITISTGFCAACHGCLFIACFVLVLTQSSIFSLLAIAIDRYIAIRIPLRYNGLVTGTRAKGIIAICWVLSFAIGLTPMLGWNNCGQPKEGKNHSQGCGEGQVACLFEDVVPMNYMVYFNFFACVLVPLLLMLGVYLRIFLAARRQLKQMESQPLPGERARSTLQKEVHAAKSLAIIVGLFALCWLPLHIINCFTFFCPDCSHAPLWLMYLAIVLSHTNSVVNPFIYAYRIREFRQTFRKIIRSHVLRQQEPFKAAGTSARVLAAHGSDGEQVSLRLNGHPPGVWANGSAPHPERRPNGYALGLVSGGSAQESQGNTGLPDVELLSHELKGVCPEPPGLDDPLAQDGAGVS
Sequence of Mitogen-activated protein kinase 14 (Q16539 whole entry): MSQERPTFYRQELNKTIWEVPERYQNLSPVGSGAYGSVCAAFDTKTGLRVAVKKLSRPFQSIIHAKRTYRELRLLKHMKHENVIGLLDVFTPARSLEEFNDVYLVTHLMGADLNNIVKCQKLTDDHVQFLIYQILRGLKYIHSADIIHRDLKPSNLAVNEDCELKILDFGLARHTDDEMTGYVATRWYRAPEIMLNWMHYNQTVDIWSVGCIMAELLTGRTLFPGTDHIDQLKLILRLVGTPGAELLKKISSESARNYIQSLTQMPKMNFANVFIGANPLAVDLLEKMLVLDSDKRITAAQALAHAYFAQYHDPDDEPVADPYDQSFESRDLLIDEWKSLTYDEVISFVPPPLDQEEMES
Sequence of 5-hydroxytryptamine receptor 4 (O70528 whole entry): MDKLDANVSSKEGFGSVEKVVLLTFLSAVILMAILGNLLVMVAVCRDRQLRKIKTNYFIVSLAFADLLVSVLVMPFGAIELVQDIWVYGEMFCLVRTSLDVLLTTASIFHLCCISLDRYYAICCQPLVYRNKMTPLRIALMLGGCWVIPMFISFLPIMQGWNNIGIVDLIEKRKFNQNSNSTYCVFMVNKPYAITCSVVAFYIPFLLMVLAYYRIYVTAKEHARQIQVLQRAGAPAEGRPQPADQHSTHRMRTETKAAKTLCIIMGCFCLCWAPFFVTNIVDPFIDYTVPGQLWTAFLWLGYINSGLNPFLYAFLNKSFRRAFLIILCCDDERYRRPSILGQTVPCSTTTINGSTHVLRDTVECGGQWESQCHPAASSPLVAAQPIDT
Sequence of Insulin receptor (P15127 27-759 limits assumed): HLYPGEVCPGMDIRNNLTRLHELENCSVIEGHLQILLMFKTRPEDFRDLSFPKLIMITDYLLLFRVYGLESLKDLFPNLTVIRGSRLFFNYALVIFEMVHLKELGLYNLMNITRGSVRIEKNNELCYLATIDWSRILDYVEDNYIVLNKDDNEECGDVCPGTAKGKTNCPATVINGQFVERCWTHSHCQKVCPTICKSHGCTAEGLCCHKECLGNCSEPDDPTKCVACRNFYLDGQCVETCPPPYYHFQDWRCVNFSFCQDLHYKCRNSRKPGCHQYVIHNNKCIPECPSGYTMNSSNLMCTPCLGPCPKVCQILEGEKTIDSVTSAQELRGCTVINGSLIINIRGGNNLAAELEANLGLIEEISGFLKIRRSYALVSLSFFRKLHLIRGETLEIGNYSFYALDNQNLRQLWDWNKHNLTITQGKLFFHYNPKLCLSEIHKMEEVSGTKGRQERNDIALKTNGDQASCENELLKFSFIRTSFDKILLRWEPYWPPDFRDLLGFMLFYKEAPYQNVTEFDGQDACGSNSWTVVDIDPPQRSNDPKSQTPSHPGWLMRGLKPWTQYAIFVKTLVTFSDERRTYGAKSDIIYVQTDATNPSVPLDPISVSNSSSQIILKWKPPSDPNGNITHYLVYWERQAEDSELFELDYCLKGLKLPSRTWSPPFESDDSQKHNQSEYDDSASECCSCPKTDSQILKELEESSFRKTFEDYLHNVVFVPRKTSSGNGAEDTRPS
Sequence of Insulin receptor (P15127 764-1383 limits assumed): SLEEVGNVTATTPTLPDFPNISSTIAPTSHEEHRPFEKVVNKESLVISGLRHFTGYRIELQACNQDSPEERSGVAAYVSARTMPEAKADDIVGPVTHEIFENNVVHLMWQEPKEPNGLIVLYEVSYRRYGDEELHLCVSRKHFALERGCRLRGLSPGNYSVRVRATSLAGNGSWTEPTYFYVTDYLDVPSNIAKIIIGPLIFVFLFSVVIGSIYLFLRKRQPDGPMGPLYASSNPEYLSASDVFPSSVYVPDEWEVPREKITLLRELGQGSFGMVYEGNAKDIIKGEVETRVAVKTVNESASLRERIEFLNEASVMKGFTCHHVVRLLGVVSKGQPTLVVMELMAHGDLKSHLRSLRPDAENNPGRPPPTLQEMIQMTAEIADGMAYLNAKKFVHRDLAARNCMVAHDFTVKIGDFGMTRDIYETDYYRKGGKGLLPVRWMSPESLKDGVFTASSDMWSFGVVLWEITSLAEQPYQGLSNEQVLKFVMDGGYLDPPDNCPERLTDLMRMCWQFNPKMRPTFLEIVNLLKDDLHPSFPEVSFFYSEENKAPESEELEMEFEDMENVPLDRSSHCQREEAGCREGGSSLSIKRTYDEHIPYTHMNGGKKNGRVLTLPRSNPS

Row | SMILES | IC50 [1] | IC50 [2] | IC50 (Insulin receptor) | IC50 [3] | Ki [3] | IC50 ([4]; read-out: IC50) | IC50 (Adenosine receptor A2a) | IC50 (Cytochrome P450 2D6) | Ki (Cytochrome P450 2D6) | IC50 [4] | Ki [1] | Ki [2] | Ki (Insulin receptor) | Ki [4] | Ki (Adenosine receptor A2a)
1 | Cc1ccccc1C(=O)N1CCC(Cc2ccccc2)CC1 | Not Active | Not Active | Not Active | Not Active | Not Active | 329 nM | Not Active | Not Active | Not Active |  |  |  |  |  | 
2 | O=C1CC[C@H](N2C(=O)c3ccccc3C2=O)C(=O)N1 | Not Active | Not Active | Not Active | Not Active | Not Active |  | Not Active | Not Active | Not Active | Not Active |  |  |  |  | 
3 | C[C@@H](O)[C@H](CO)NC(=O)[C@@H]1CSSC[C@H](NC(=O)[C@H](N)Cc2ccccc2)C(=O)N[C@@H](Cc2ccccc2)C(=O)N[C@H](Cc2c[nH]c3ccccc23)C(=O)N[C@@H](CCCCN)C(=O)N[C@@H]([C@@H](C)O)C(=O)N1 (H-[dF]CF[dW]KTC-{Threoninol(2S,3R)}; disulfide 2-7) | Not Active | Not Active | Not Active | Not Active | Not Active |  | Not Active | Not Active | Not Active | Not Active |  |  |  |  | 
4 | S=C=Nc1cccc2ccccc12 [1-NAPHTHYLISOTHIOCYANATE] | Not Active | Not Active | Not Active | Not Active | Not Active |  | Not Active | Not Active | Not Active | Not Active |  |  |  |  | 
5 | C[C@](O)(CS(=O)(=O)c1ccc(F)cc1)C(=O)Nc1ccc(C#N)c(C(F)(F)F)c1 [(R)-BICALUTAMIDE] | Not Active | Not Active | Not Active | Not Active | Not Active |  | Not Active | Not Active | Not Active | Not Active |  |  |  |  | 
6 | CCCC(=O)Nc1ccc(OCC(O)CNC(C)C)c(C(C)=O)c1 (stereo not given) [ACEBUTOLOL] | Not Active | Not Active | Not Active | Not Active | Not Active |  | Not Active | Not Active | Not Active | Not Active |  |  |  |  | 
7 | CC(=O)Nc1ccc(O)cc1 [ACETAMINOPHEN] | Not Active | Not Active | Not Active | Not Active | Not Active |  | Not Active | Not Active | Not Active | Not Active |  |  |  |  | 
8 | COc1cc2c(c3oc(=O)c4c(c13)CCC4=O)[C@@H]1C=CO[C@@H]1O2 [AFLATOXIN] | Not Active | Not Active | Not Active | Not Active | Not Active |  | Not Active | Not Active | Not Active | Not Active | Not Active | Not Active | Not Active | Not Active | Not Active
9 | N=C(N)NC(=O)c1nc(Cl)c(N)nc1N [AMILORIDE] | Not Active | Not Active | Not Active | Not Active | Not Active |  | Not Active | Not Active | Not Active | Not Active |  |  |  |  | 
10 | Cc1cc(=O)n(-c2ccccc2)n1C [ANTIPYRINE] | Not Active | Not Active | Not Active | Not Active | Not Active |  | Not Active | Not Active | Not Active | Not Active |  |  |  |  | 
11 | CN1C(=O)COc2c(C(=O)NC3CN4CCC3CC4)cc(Cl)cc21 (stereo not given) [AZASETRON] | Not Active | Not Active | Not Active | Not Active | Not Active |  | Not Active | Not Active | Not Active | Not Active |  |  |  |  | 
12 | C[C@H]1C[C@H]2[C@@H]3CCC4=CC(=O)C=C[C@]4(C)[C@@]3(Cl)[C@@H](O)C[C@]2(C)[C@@]1(O)C(=O)CO [BECLOMETHASONE] | Not Active | Not Active | Not Active | Not Active | Not Active |  | Not Active | Not Active | Not Active | Not Active |  |  |  |  | 
13 | CCOC(=O)[C@H](CCc1ccccc1)N[C@H]1CCc2ccccc2N(CC(=O)O)C1=O [BENAZEPRIL] | Not Active | Not Active | Not Active | Not Active | Not Active |  | Not Active | Not Active | Not Active | Not Active |  |  |  |  | 
14 | Nc1c(CC(=O)O)cccc1C(=O)c1ccc(Br)cc1 [BROMFENAC] | Not Active | Not Active | Not Active | Not Active | Not Active |  | Not Active | Not Active | Not Active | Not Active |  |  |  |  | 
15 | O=C1CC2(CCCC2)CC(=O)N1CCCCN1CCN(c2ncccn2)CC1 [BUSPIRONE] | Not Active | Not Active | Not Active | Not Active | Not Active |  | Not Active | Not Active | Not Active | Not Active |  |  |  |  | 
16 | C[C@@]12C(=O)OC(=O)[C@]1(C)[C@H]1CC[C@@H]2O1 [CANTHARIDIN] | Not Active | Not Active | Not Active | Not Active | Not Active |  | Not Active | Not Active | Not Active | Not Active |  |  |  |  | 
17 | ClC(Cl)Cl [CHLOROFORM] | Not Active | Not Active | Not Active | Not Active | Not Active |  | Not Active | Not Active | Not Active | Not Active |  |  |  |  | 
18 | C=C1CC[C@H](O)C/C1=C/C=C1\CCC[C@]2(C)[C@@H]([C@H](C)CCCC(C)C)CC[C@@H]12 [CHOLECALCIFEROL] | Not Active | Not Active | Not Active | Not Active | Not Active |  | Not Active | Not Active | Not Active | Not Active |  |  |  |  | 
19 | C[N+](C)(C)CCO.[Cl-] [CHOLINE CHLORIDE] | Not Active | Not Active | Not Active | Not Active | Not Active |  | Not Active | Not Active | Not Active | Not Active |  |  |  |  | 
20 | CC(=O)OCC(=O)[C@@]1(O)CC[C@H]2[C@@H]3CCC4=CC(=O)CC[C@]4(C)[C@H]3C(=O)C[C@@]21C [CORTISONE ACETATE] | Not Active | Not Active | Not Active | Not Active | Not Active |  | Not Active | Not Active | Not Active | Not Active |  |  |  |  | 
21 | O=c1ccc2ccccc2o1 [COUMARIN] | Not Active | Not Active | Not Active | Not Active | Not Active |  | Not Active | Not Active | Not Active | Not Active |  |  |  |  | 
22 | CN(C)/N=N/c1[nH]cnc1C(N)=O [DACARBAZINE] | Not Active | Not Active | Not Active | Not Active | Not Active |  | Not Active | Not Active | Not Active | Not Active |  |  |  |  | 
23 | COc1ccc2c(c1)[C@]13CCCC[C@@H]1[C@H](C2)N(C)CC3 [DEXTROMETHORPHAN] | Not Active | Not Active | Not Active | Not Active | Not Active |  | Not Active | Not Active | Not Active | Not Active |  |  |  |  | 
24 | CC(=O)Nc1c(I)c(NC(C)=O)c(I)c(C(=O)O)c1I [DIATRIZOIC ACID] | Not Active | Not Active | Not Active | Not Active | Not Active |  | Not Active | Not Active | Not Active | Not Active |  |  |  |  | 
25 | COP(=O)(OC)OC=C(Cl)Cl [DICHLORVOS] | Not Active | Not Active | Not Active | Not Active | Not Active |  | Not Active | Not Active | Not Active | Not Active |  |  |  |  | 
26 | O=C(O)Cc1ccccc1Nc1c(Cl)cccc1Cl [DICLOFENAC] | Not Active | Not Active | Not Active | Not Active | Not Active |  | Not Active | Not Active | Not Active | Not Active |  |  |  |  | 
27 | C[C@H]1O[C@@H](O[C@H]2[C@@H](O)C[C@H](O[C@H]3[C@@H](O)C[C@H](O[C@H]4CC[C@@]5(C)[C@H](CC[C@@H]6[C@@H]5CC[C@]5(C)[C@@H](C7=CC(=O)OC7)CC[C@]65O)C4)O[C@@H]3C)O[C@@H]2C)C[C@H](O)[C@@H]1O [DIGITOXIN] | Not Active | Not Active | Not Active | Not Active | Not Active |  | Not Active | Not Active | Not Active | Not Active |  |  |  |  | 
28 | OC(CCN1CCCCC1)(c1ccccc1)C1CCCCC1 (stereo not given) [TRIHEXYPHENIDYL] | Not Active | Not Active | Not Active | Not Active | Not Active |  | Not Active |  |  | Not Active |  |  |  |  | 
